Laboratory results: patent US6613718B2, “Aryl ether derivatives and processes for their preparation and herbicidal and desiccant compositions containing them” (Ishihara Sangyo Kaisha, Ltd., priority 2001, dated 2003)

Columns and labels:
Format in all cases: in vivo
[1] = system: sicklepod (Cassia obtusifolia, CASOB); experiment: Pre-emerge greenhouse herbicide activity screening, phytotoxicity rating; conditions: 14 days after application
Outline: (§1)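 Ratings taken 14 days after treatment on a 0–100 scale, 100 meaning complete plant death. Post-emerge: 2-3 leaf plants, 0.25% v/v surfactant added; pre-emerge: seeds sown a day ahead, soil surface-watered after spraying. Rates 15–1000 g ai/ha in acetone, 187 l/ha.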

[2] = system: johnsongrass (Sorghum halepense, SORHA); experiment: as above; conditions: 14 days after application
Outline: as §1

[3] = system: common ragweed (Ambrosia artemisiifolia L., AMBEL); experiment: as above; conditions: 14 days after application
Outline: as §1

[4] = system: large crabgrass (Digitaria sanguinalis, DIGSA); experiment: as above; conditions: 14 days after application
Outline: as §1

[5] = system: lambsquarters (Chenopodium album, CHEAL); experiment: as above; conditions: 14 days after application
Outline: as §1

[6] = system: ivyleaf morningglory (Ipomoea hederacea, IPOHE); experiment: as above; conditions: 14 days after application
Outline: as §1

[7] = system: green foxtail (Setaria viridis, SETVI); experiment: as above; conditions: 14 days after application
Outline: as §1

[8] = system: barnyardgrass (Echinochloa crus-galli, ECHCG); experiment: as above; conditions: 14 days after application
Outline: as §1

[9] = system: redroot pigweed (Amaranthus retroflexus, AMARE); experiment: as above; conditions: 14 days after application
Outline: as §1

[10] = system: velvetleaf (Abutilon theophrasti, ABUTH); experiment: as above; conditions: 14 days after application
Outline: as §1

[11] = system: soybean (Glycine max L., var. Pella 86, SOY); experiment: Pre-emerge greenhouse screening, crop safety (phytotoxicity rating); conditions: 14 days after application
Outline: as §1

[12] = system: upland rice (Oryza sp., var.Tebonnet, RICE); experiment: as above; conditions: 14 days after application
Outline: as §1

[13] = system: field corn (Zea mays L., var. Dekalb 535, CORN); experiment: as above; conditions: 14 days after application
Outline: as §1

[14] = system: field corn (Zea mays L., var. Dekalb 535, CORN); experiment: Post-emerge greenhouse screening, crop safety / corn selectivity (phytotoxicity rating); conditions: 14 days after application
Outline: as §1

[15] = system: sicklepod (Cassia obtusifolia, CASOB); experiment: Post-emerge greenhouse herbicide activity screening, phytotoxicity rating
Outline: as §1

[16] = system: johnsongrass (Sorghum halepense, SORHA); experiment: as above; conditions: 14 days after application
Outline: as §1

[17] = system: common ragweed (Ambrosia artemisiifolia L., AMBEL); experiment: as above
Outline: as §1

[18] = system: large crabgrass (Digitaria sanguinalis, DIGSA); experiment: as above; conditions: 14 days after application
Outline: as §1

[19] = system: lambsquarters (Chenopodium album, CHEAL); experiment: as above
Outline: as §1

[20] = system: ivyleaf morningglory (Ipomoea hederacea, IPOHE); experiment: as above; conditions: 14 days after application
Outline: as §1

[21] = system: green foxtail (Setaria viridis, SETVI); experiment: as above
Outline: as §1

[22] = system: barnyardgrass (Echinochloa crus-galli, ECHCG); experiment: as above; conditions: 14 days after application
Outline: as §1

[23] = system: redroot pigweed (Amaranthus retroflexus, AMARE); experiment: as above
Outline: as §1

[24] = system: velvetleaf (Abutilon theophrasti, ABUTH); experiment: as above; conditions: 14 days after application
Outline: as §1

[25] = system: soybean (Glycine max L., var. Pella 86, SOY); experiment: Post-emerge greenhouse screening, crop safety (phytotoxicity rating); conditions: 14 days after application
Outline: as §1

[26] = system: upland rice (Oryza sp., var.Tebonnet, RICE); experiment: as above; conditions: 14 days after application
Outline: as §1

[27] = 125 g ai/ha, 14 days after application
[28] = 250 g ai/ha, 14 days after application

Cn1c(C(F)(F)F)cc(=O)n(-c2cc(Oc3ccccc3[N+](=O)[O-])c(Cl)cc2F)c1=S [Compound 1-49]
CASOB phytotoxicity rating (0-100 scale) ([1]; 125 g ai/ha): 50 | CASOB phytotoxicity rating (0-100 scale) ([1]; 250 g ai/ha): 70 | SORHA phytotoxicity rating (0-100 scale) ([2]; 125 g ai/ha): 40 | SORHA phytotoxicity rating (0-100 scale) ([2]; 250 g ai/ha): 60 | AMBEL phytotoxicity rating (0-100 scale) ([3]; 125 g ai/ha): 70 | AMBEL phytotoxicity rating (0-100 scale) ([3]; 250 g ai/ha): 80 | DIGSA phytotoxicity rating (0-100 scale) ([4]; 125 g ai/ha): 95 | DIGSA phytotoxicity rating (0-100 scale) ([4]; 250 g ai/ha): 99 | CHEAL phytotoxicity rating (0-100 scale) ([5]; 125 g ai/ha): 100 | CHEAL phytotoxicity rating (0-100 scale) ([5]; 250 g ai/ha): 100 | IPOHE phytotoxicity rating (0-100 scale) ([6]; 125 g ai/ha): 75 | IPOHE phytotoxicity rating (0-100 scale) ([6]; 250 g ai/ha): 80 | SETVI phytotoxicity rating (0-100 scale) ([7]; 125 g ai/ha): 99 | SETVI phytotoxicity rating (0-100 scale) ([7]; 250 g ai/ha): 100 | ECHCG phytotoxicity rating (0-100 scale) ([8]; 125 g ai/ha): 45 | ECHCG phytotoxicity rating (0-100 scale) ([8]; 250 g ai/ha): 98 | AMARE phytotoxicity rating (0-100 scale) ([9]; 125 g ai/ha): 100 | AMARE phytotoxicity rating (0-100 scale) ([9]; 250 g ai/ha): 100 | ABUTH phytotoxicity rating (0-100 scale) ([10]; 125 g ai/ha): 95 | ABUTH phytotoxicity rating (0-100 scale) ([10]; 250 g ai/ha): 100 | SOY crop damage, phytotoxicity rating (0-100 scale) ([11]; 125 g ai/ha): 0 | SOY crop damage, phytotoxicity rating (0-100 scale) ([11]; 250 g ai/ha): 0 | RICE crop damage, phytotoxicity rating (0-100 scale) ([12]; 125 g ai/ha): 30 | RICE crop damage, phytotoxicity rating (0-100 scale) ([12]; 250 g ai/ha): 35 | CORN crop damage, phytotoxicity rating (0-100 scale) ([13]; 125 g ai/ha): 0 | CORN crop damage, phytotoxicity rating (0-100 scale) ([13]; 250 g ai/ha): 0 | CORN crop damage, phytotoxicity rating (0-100 scale) ([14]; 125 g ai/ha): 0 | CORN crop damage, phytotoxicity rating (0-100 scale) ([14]; 250 g ai/ha): 0 | CASOB phytotoxicity rating (0-100 scale) ([15]; 31.3 g ai/ha): 60 | CASOB phytotoxicity rating (0-100 scale) ([15]; 62.5 g ai/ha): 70 | CASOB phytotoxicity rating (0-100 scale) [15, 27]: 75 | CASOB phytotoxicity rating (0-100 scale) [15, 28]: 75 | SORHA phytotoxicity rating (0-100 scale) ([16]; 125 g ai/ha): 0 | SORHA phytotoxicity rating (0-100 scale) ([16]; 250 g ai/ha): 0 | AMBEL phytotoxicity rating (0-100 scale) ([17]; 31.3 g ai/ha): 65 | AMBEL phytotoxicity rating (0-100 scale) ([17]; 62.5 g ai/ha): 65 | AMBEL phytotoxicity rating (0-100 scale) [17, 27]: 70 | AMBEL phytotoxicity rating (0-100 scale) [17, 28]: 70 | DIGSA phytotoxicity rating (0-100 scale) ([18]; 125 g ai/ha): 0 | DIGSA phytotoxicity rating (0-100 scale) ([18]; 250 g ai/ha): 0 | CHEAL phytotoxicity rating (0-100 scale) ([19]; 31.3 g ai/ha): 98 | CHEAL phytotoxicity rating (0-100 scale) ([19]; 62.5 g ai/ha): 98 | CHEAL phytotoxicity rating (0-100 scale) [19, 27]: 99 | CHEAL phytotoxicity rating (0-100 scale) [19, 28]: 100 | IPOHE phytotoxicity rating (0-100 scale) ([20]; 125 g ai/ha): 80 | IPOHE phytotoxicity rating (0-100 scale) ([20]; 250 g ai/ha): 80 | SETVI phytotoxicity rating (0-100 scale) ([21]; 31.3 g ai/ha): 0 | SETVI phytotoxicity rating (0-100 scale) ([21]; 62.5 g ai/ha): 0 | SETVI phytotoxicity rating (0-100 scale) [21, 27]: 0 | SETVI phytotoxicity rating (0-100 scale) [21, 28]: 0 | ECHCG phytotoxicity rating (0-100 scale) ([22]; 125 g ai/ha): 0 | ECHCG phytotoxicity rating (0-100 scale) ([22]; 250 g ai/ha): 0 | AMARE phytotoxicity rating (0-100 scale) ([23]; 31.3 g ai/ha): 98 | AMARE phytotoxicity rating (0-100 scale) ([23]; 62.5 g ai/ha): 98 | AMARE phytotoxicity rating (0-100 scale) [23, 27]: 99 | AMARE phytotoxicity rating (0-100 scale) [23, 28]: 100 | ABUTH phytotoxicity rating (0-100 scale) ([24]; 125 g ai/ha): 98 | ABUTH phytotoxicity rating (0-100 scale) ([24]; 250 g ai/ha): 100 | SOY crop damage, phytotoxicity rating (0-100 scale) ([25]; 125 g ai/ha): 10 | SOY crop damage, phytotoxicity rating (0-100 scale) ([25]; 250 g ai/ha): 15 | RICE crop damage, phytotoxicity rating (0-100 scale) ([26]; 125 g ai/ha): 0 | RICE crop damage, phytotoxicity rating (0-100 scale) ([26]; 250 g ai/ha): 25

Cn1c(C(F)(F)F)cc(=O)n(-c2cc(Oc3ccccc3C#N)c(Cl)cc2F)c1=S [Compound 1-66]
CASOB phytotoxicity rating (0-100 scale) ([1]; 125 g ai/ha): 35 | CASOB phytotoxicity rating (0-100 scale) ([1]; 250 g ai/ha): 65 | SORHA phytotoxicity rating (0-100 scale) ([2]; 125 g ai/ha): 60 | SORHA phytotoxicity rating (0-100 scale) ([2]; 250 g ai/ha): 75 | AMBEL phytotoxicity rating (0-100 scale) ([3]; 125 g ai/ha): 60 | AMBEL phytotoxicity rating (0-100 scale) ([3]; 250 g ai/ha): 65 | DIGSA phytotoxicity rating (0-100 scale) ([4]; 125 g ai/ha): 90 | DIGSA phytotoxicity rating (0-100 scale) ([4]; 250 g ai/ha): 99 | CHEAL phytotoxicity rating (0-100 scale) ([5]; 125 g ai/ha): 100 | CHEAL phytotoxicity rating (0-100 scale) ([5]; 250 g ai/ha): 100 | IPOHE phytotoxicity rating (0-100 scale) ([6]; 125 g ai/ha): 90 | IPOHE phytotoxicity rating (0-100 scale) ([6]; 250 g ai/ha): 100 | SETVI phytotoxicity rating (0-100 scale) ([7]; 125 g ai/ha): 99 | SETVI phytotoxicity rating (0-100 scale) ([7]; 250 g ai/ha): 100 | ECHCG phytotoxicity rating (0-100 scale) ([8]; 125 g ai/ha): 55 | ECHCG phytotoxicity rating (0-100 scale) ([8]; 250 g ai/ha): 60 | AMARE phytotoxicity rating (0-100 scale) ([9]; 125 g ai/ha): 100 | AMARE phytotoxicity rating (0-100 scale) ([9]; 250 g ai/ha): 100 | ABUTH phytotoxicity rating (0-100 scale) ([10]; 125 g ai/ha): 85 | ABUTH phytotoxicity rating (0-100 scale) ([10]; 250 g ai/ha): 99 | SOY crop damage, phytotoxicity rating (0-100 scale) ([11]; 125 g ai/ha): 0 | SOY crop damage, phytotoxicity rating (0-100 scale) ([11]; 250 g ai/ha): 0 | RICE crop damage, phytotoxicity rating (0-100 scale) ([12]; 125 g ai/ha): 40 | RICE crop damage, phytotoxicity rating (0-100 scale) ([12]; 250 g ai/ha): 45 | CORN crop damage, phytotoxicity rating (0-100 scale) ([13]; 125 g ai/ha): 0 | CORN crop damage, phytotoxicity rating (0-100 scale) ([13]; 250 g ai/ha): 0 | CORN crop damage, phytotoxicity rating (0-100 scale) ([14]; 125 g ai/ha): 0 | CORN crop damage, phytotoxicity rating (0-100 scale) ([14]; 250 g ai/ha): 0 | CASOB phytotoxicity rating (0-100 scale) [15, 27]: 75 | CASOB phytotoxicity rating (0-100 scale) [15, 28]: 75 | SORHA phytotoxicity rating (0-100 scale) ([16]; 125 g ai/ha): 0 | SORHA phytotoxicity rating (0-100 scale) ([16]; 250 g ai/ha): 0 | AMBEL phytotoxicity rating (0-100 scale) [17, 27]: 75 | AMBEL phytotoxicity rating (0-100 scale) [17, 28]: 75 | DIGSA phytotoxicity rating (0-100 scale) ([18]; 125 g ai/ha): 0 | DIGSA phytotoxicity rating (0-100 scale) ([18]; 250 g ai/ha): 0 | CHEAL phytotoxicity rating (0-100 scale) [19, 27]: 98 | CHEAL phytotoxicity rating (0-100 scale) [19, 28]: 100 | IPOHE phytotoxicity rating (0-100 scale) ([20]; 125 g ai/ha): 70 | IPOHE phytotoxicity rating (0-100 scale) ([20]; 250 g ai/ha): 85 | SETVI phytotoxicity rating (0-100 scale) [21, 27]: 0 | SETVI phytotoxicity rating (0-100 scale) [21, 28]: 0 | ECHCG phytotoxicity rating (0-100 scale) ([22]; 125 g ai/ha): 0 | ECHCG phytotoxicity rating (0-100 scale) ([22]; 250 g ai/ha): 0 | AMARE phytotoxicity rating (0-100 scale) [23, 27]: 70 | AMARE phytotoxicity rating (0-100 scale) [23, 28]: 70 | ABUTH phytotoxicity rating (0-100 scale) ([24]; 125 g ai/ha): 90 | ABUTH phytotoxicity rating (0-100 scale) ([24]; 250 g ai/ha): 90 | SOY crop damage, phytotoxicity rating (0-100 scale) ([25]; 125 g ai/ha): 10 | SOY crop damage, phytotoxicity rating (0-100 scale) ([25]; 250 g ai/ha): 10 | RICE crop damage, phytotoxicity rating (0-100 scale) ([26]; 125 g ai/ha): 0 | RICE crop damage, phytotoxicity rating (0-100 scale) ([26]; 250 g ai/ha): 0
